{
  "source": "patent US20090074911A1",
  "about": "“Indicia-Bearing Package For Delivery Systems” (CADBURY ADAMS USA LLC, priority 2005, published 2009)",
  "assay": "Discoloration (degradation) of sucralose during encapsulation",
  "assay_type": "physicochemical",
  "description": "As one example of a hydrophilic coating, sucralose was mixed with powdered polyvinyl acetate and 5% fat and extruded at 110° C. […] In an alternative encapsulation, sucralose was mixed with powdered polyvinyl acetate, 2% polyvinylpyrollidone and 1% magnesium stearate and pressed into tablets at 25° C. The tablets were then heated to 80° C., which softened the polymer and fused the polyvinylacetate with the sucralose. […] Thereafter, the tablets were cooled, ground and sized and analyzed. […] As another example, a polymer/sweetener matrix was prepared as described above in this paragraph. A solution of gum arabic was made and coated on the polymer/sweetener matrix particles using the method described in U.S. Pat. No. 3,196,827, the relevant portions of which are incorporated herein by reference. Coating levels were 20, 30, 40, and 50% for different samples. Chewing gums prepared with the coated polymer/sweetener matrix particles were chewed by a panel with bolus collection at 5, 10, 15, 20 minutes. Residual sucralose was analyzed in each chewed bolus.",
  "data": [
    {"smiles": "OC[C@H]1O[C@H](O[C@]2(CCl)O[C@H](CCl)[C@@H](O)[C@@H]2O)[C@H](O)[C@@H](O)[C@H]1Cl", "note": "[sucralose]", "values": [
      {"measurement": "discoloration indicating degradation of the sucralose", "setting": "mixed with powdered polyvinyl acetate and 5% fat, extruded at 110° C.", "result": "Extensive discoloration"},
      {"measurement": "discoloration of the sucralose", "setting": "mixed with powdered polyvinyl acetate, 2% polyvinylpyrollidone, 1% magnesium stearate, pressed into tablets at 25° C., heated to 80° C.", "result": "No discoloration"},
      {"measurement": "discoloration of the sucralose", "setting": "same tablets after being cooled, ground, sized and analyzed", "result": "no discoloration"}
    ]}
  ]
}
